Data as given in article PMC2866172 (Journal of medicinal chemistry, 2010).

How the values were obtained:
[1] = Torso PET imaging in anesthetized baboons; details: for Calculated drug concentration in heart / Calculated drug concentration in kidney cortex / Calculated drug concentration in kidney medulla / Calculated drug concentration in liver / Calculated drug concentration in lung / Calculated drug concentration in plasma: 17 kg baboon; for Concentration in heart / Concentration in kidney cortex / Concentration in kidney medulla / Concentration in liver / Concentration in lung / Concentration in plasma: baboon, i.v.
[2] = Brain PET imaging in anesthetized baboons; details: for Estimated concentration in whole brain, C30min / Concentration in whole brain, C30min: 30 min; for Estimated concentration in whole brain, C30min / Estimated concentration in whole brain, C60min / Estimated concentration in whole brain, C90min: estimated from baboon weight, signal assumed intact drug; for Estimated concentration in whole brain, C60min / Concentration in whole brain, C60min: 60 min; for Estimated concentration in whole brain, C90min / Concentration in whole brain, C90min: 90 min; for Concentration in whole brain, C30min / Concentration in whole brain, C60min / Concentration in whole brain, C90min: baboon
[3] = 15 min, calculated assuming 5 mg/kg dose
[4] = 30 min, calculated assuming 5 mg/kg dose
[5] = 60 min, calculated assuming 5 mg/kg dose
[6] = 90 min, calculated assuming 5 mg/kg dose
[7] = 15 min, calculated assuming 20 mg/kg dose
[8] = 30 min, calculated assuming 20 mg/kg dose
[9] = 60 min, calculated assuming 20 mg/kg dose
[10] = 90 min, calculated assuming 20 mg/kg dose

NN[11C](=O)c1ccncc1 [[^11C]INH]
Calculated drug concentration in heart [1, 3]: (8.72) µg/ml
Calculated drug concentration in kidney cortex [1, 3]: (15.06) µg/ml
Calculated drug concentration in kidney medulla [1, 3]: (18.94) µg/ml
Calculated drug concentration in liver [1, 3]: (12.50) µg/ml
Calculated drug concentration in lung [1, 3]: (7.72) µg/ml
Calculated drug concentration in plasma [1, 3]: (3.76) µg/ml
Calculated drug concentration in heart [1, 4]: (6.13) µg/ml
Calculated drug concentration in kidney cortex [1, 4]: (9.26) µg/ml
Calculated drug concentration in kidney medulla [1, 4]: (15.43) µg/ml
Calculated drug concentration in liver [1, 4]: (9.71) µg/ml
Calculated drug concentration in lung [1, 4]: (6.09) µg/ml
Calculated drug concentration in plasma [1, 4]: (2.96) µg/ml
Calculated drug concentration in heart [1, 5]: (3.74) µg/ml
Calculated drug concentration in kidney cortex [1, 5]: (7.72) µg/ml
Calculated drug concentration in kidney medulla [1, 5]: (16.37) µg/ml
Calculated drug concentration in liver [1, 5]: (7.64) µg/ml
Calculated drug concentration in lung [1, 5]: (4.42) µg/ml
Calculated drug concentration in plasma [1, 5]: (2.05) µg/ml
Calculated drug concentration in heart [1, 6]: (4.15) µg/ml
Calculated drug concentration in kidney cortex [1, 6]: (8.54) µg/ml
Calculated drug concentration in kidney medulla [1, 6]: (14.69) µg/ml
Calculated drug concentration in liver [1, 6]: (6.91) µg/ml
Calculated drug concentration in lung [1, 6]: (4.19) µg/ml
Calculated drug concentration in plasma [1, 6]: (1.62) µg/ml
Concentration in heart ([1]; 15 min after administration): 0.0103 %ID/cc
Concentration in kidney cortex ([1]; 15 min after administration): 0.0177 %ID/cc
Concentration in kidney medulla ([1]; 15 min after administration): 0.0223 %ID/cc
Concentration in liver ([1]; 15 min after administration): 0.0147 %ID/cc
Concentration in lung ([1]; 15 min after administration): 0.0091 %ID/cc
Concentration in plasma ([1]; 15 min after administration): 0.00442 %ID/cc
Concentration in heart ([1]; 30 min after administration): 0.0072 %ID/cc
Concentration in kidney cortex ([1]; 30 min after administration): 0.0109 %ID/cc
Concentration in kidney medulla ([1]; 30 min after administration): 0.0181 %ID/cc
Concentration in liver ([1]; 30 min after administration): 0.0114 %ID/cc
Concentration in lung ([1]; 30 min after administration): 0.0072 %ID/cc
Concentration in plasma ([1]; 30 min after administration): 0.00348 %ID/cc
Concentration in heart ([1]; 60 min after administration): 0.0044 %ID/cc
Concentration in kidney cortex ([1]; 60 min after administration): 0.0091 %ID/cc
Concentration in kidney medulla ([1]; 60 min after administration): 0.0193 %ID/cc
Concentration in liver ([1]; 60 min after administration): 0.0090 %ID/cc
Concentration in lung ([1]; 60 min after administration): 0.0052 %ID/cc
Concentration in plasma ([1]; 60 min after administration): 0.00241 %ID/cc
Concentration in heart ([1]; 90 min after administration): 0.0049 %ID/cc
Concentration in kidney cortex ([1]; 90 min after administration): 0.0100 %ID/cc
Concentration in kidney medulla ([1]; 90 min after administration): 0.0173 %ID/cc
Concentration in liver ([1]; 90 min after administration): 0.0081 %ID/cc
Concentration in lung ([1]; 90 min after administration): 0.0049 %ID/cc
Concentration in plasma ([1]; 90 min after administration): 0.0019 %ID/cc
Estimated concentration in whole brain, C30min ([2]; 5 mg/kg dose): 2.54 µg/mL
Estimated concentration in whole brain, C60min ([2]; 5 mg/kg dose): 2.11 µg/mL
Estimated concentration in whole brain, C90min ([2]; 5 mg/kg dose): 1.75 µg/mL
Concentration in whole brain, C30min ([2]; i.v.): 0.00299 %ID/cc
Concentration in whole brain, C60min ([2]; i.v.): 0.00248 %ID/cc
Concentration in whole brain, C90min ([2]; i.v.): 0.00206 %ID/cc
Blood-brain barrier penetration ([2]; healthy baboons, i.v., TAC, AUC and image): higher initial brain penetration and tissue accumulation when compared to RIF

N[11C](=O)c1cnccn1 [[^11C]PZA]
Calculated drug concentration in heart [1, 7]: (67.76) µg/ml
Calculated drug concentration in kidney cortex [1, 7]: (20.52) µg/ml
Calculated drug concentration in kidney medulla [1, 7]: (617.02) µg/ml
Calculated drug concentration in liver [1, 7]: (36.14) µg/ml
Calculated drug concentration in lung [1, 7]: (35.03) µg/ml
Calculated drug concentration in plasma [1, 7]: (22.03) µg/ml
Calculated drug concentration in heart [1, 8]: (61.50) µg/ml
Calculated drug concentration in kidney cortex [1, 8]: (16.59) µg/ml
Calculated drug concentration in kidney medulla [1, 8]: (474.39) µg/ml
Calculated drug concentration in liver [1, 8]: (26.96) µg/ml
Calculated drug concentration in lung [1, 8]: (26.48) µg/ml
Calculated drug concentration in plasma [1, 8]: (14.59) µg/ml
Calculated drug concentration in heart [1, 9]: (57.59) µg/ml
Calculated drug concentration in kidney cortex [1, 9]: (12.55) µg/ml
Calculated drug concentration in kidney medulla [1, 9]: (343.00) µg/ml
Calculated drug concentration in liver [1, 9]: (21.98) µg/ml
Calculated drug concentration in lung [1, 9]: (22.17) µg/ml
Calculated drug concentration in plasma [1, 9]: (11.25) µg/ml
Calculated drug concentration in heart [1, 10]: (59.49) µg/ml
Calculated drug concentration in kidney cortex [1, 10]: (9.93) µg/ml
Calculated drug concentration in kidney medulla [1, 10]: (229.44) µg/ml
Calculated drug concentration in liver [1, 10]: (19.19) µg/ml
Calculated drug concentration in lung [1, 10]: (18.58) µg/ml
Calculated drug concentration in plasma [1, 10]: (9.04) µg/ml
Concentration in heart ([1]; 15 min after administration): 0.0199 %ID/cc
Concentration in kidney cortex ([1]; 15 min after administration): 0.0060 %ID/cc
Concentration in kidney medulla ([1]; 15 min after administration): 0.1815 %ID/cc
Concentration in liver ([1]; 15 min after administration): 0.0106 %ID/cc
Concentration in lung ([1]; 15 min after administration): 0.0103 %ID/cc
Concentration in plasma ([1]; 15 min after administration): 0.00648 %ID/cc
Concentration in heart ([1]; 30 min after administration): 0.0181 %ID/cc
Concentration in kidney cortex ([1]; 30 min after administration): 0.0049 %ID/cc
Concentration in kidney medulla ([1]; 30 min after administration): 0.1395 %ID/cc
Concentration in liver ([1]; 30 min after administration): 0.0079 %ID/cc
Concentration in lung ([1]; 30 min after administration): 0.0078 %ID/cc
Concentration in plasma ([1]; 30 min after administration): 0.00429 %ID/cc
Concentration in heart ([1]; 60 min after administration): 0.0169 %ID/cc
Concentration in kidney cortex ([1]; 60 min after administration): 0.0037 %ID/cc
Concentration in kidney medulla ([1]; 60 min after administration): 0.1009 %ID/cc
Concentration in liver ([1]; 60 min after administration): 0.0065 %ID/cc
Concentration in lung ([1]; 60 min after administration): 0.0065 %ID/cc
Concentration in plasma ([1]; 60 min after administration): 0.00331 %ID/cc
Concentration in heart ([1]; 90 min after administration): 0.0175 %ID/cc
Concentration in kidney cortex ([1]; 90 min after administration): 0.0029 %ID/cc
Concentration in kidney medulla ([1]; 90 min after administration): 0.0675 %ID/cc
Concentration in liver ([1]; 90 min after administration): 0.0056 %ID/cc
Concentration in lung ([1]; 90 min after administration): 0.0055 %ID/cc
Concentration in plasma ([1]; 90 min after administration): 0.00266 %ID/cc
Estimated concentration in whole brain, C30min ([2]; 20 mg/kg dose): 21.05 µg/mL
Estimated concentration in whole brain, C60min ([2]; 20 mg/kg dose): 15.74 µg/mL
Estimated concentration in whole brain, C90min ([2]; 20 mg/kg dose): 13.70 µg/mL
Concentration in whole brain, C30min ([2]; i.v.): 0.00619 %ID/cc
Concentration in whole brain, C60min ([2]; i.v.): 0.00463 %ID/cc
Concentration in whole brain, C90min ([2]; i.v.): 0.00403 %ID/cc
